Experimental data published in patent US9546156B2, “N-bicyclic aryl,N'-pyrazolyl urea, thiourea, guanidine cyanoguanidine compounds as TrkA kinase inhibitors” (Array BioPharma Inc., priority 2012, dated 2017).

Experiments:
Assay in all cases: Off-target kinase profiling (KinaseProfiler)
Assay type in all cases: biochemical
Conditions in all cases: 10 μM, ATP near Km
FGFR1 = target: T1, FGFR1 (Homo sapiens, UniProt P11362)
T1 construct: purchased Millipore, Inc. (KinaseProfiler service)
Experimental: (§1) A representative compound (Example 16) of the invention was tested for off-target kinase activity at a concentration of 10 μM by Millipore, Inc. in their KinaseProfiler™ service against all the kinases available in their full kinase panel. The compound was run in duplicate at a concentration of ATP near the Km for each individual kinase according to Millipore's specifications. The results are shown in Table B. Data are reported as percent of control (POC) and are the average of the two replicates.

BrSK1 = target: T2, BrSK1 (Homo sapiens, UniProt Q8TDC3)
T2 construct: purchased Millipore, Inc. (KinaseProfiler service)
Experimental: as §1

PKCgamma = target: T3, PKCgamma (Homo sapiens, UniProt P05129)
T3 construct: purchased Millipore, Inc. (KinaseProfiler service)
Experimental: as §1

TAK1 = target: T4, TAK1 (Homo sapiens, UniProt O43318)
T4 construct: purchased Millipore, Inc. (KinaseProfiler service)
Experimental: as §1

c-RAF = target: T5, c-RAF (Homo sapiens, UniProt P04049, Y340D/Y341D)
T5 construct: purchased Millipore, Inc. (KinaseProfiler service)
Experimental: as §1

DRAK1 = target: T6, DRAK1 (Homo sapiens, UniProt Q9UEE5)
T6 construct: purchased Millipore, Inc. (KinaseProfiler service)
Experimental: as §1

MRCKbeta = target: T7, MRCKbeta (Homo sapiens, UniProt Q9Y5S2)
T7 construct: purchased Millipore, Inc. (KinaseProfiler service)
Experimental: as §1

CK1_y = test system: CK1_y
Experimental: as §1

Flt4 = target: T8, Flt4 (Homo sapiens, UniProt P35916)
T8 construct: purchased Millipore, Inc. (KinaseProfiler service)
Experimental: as §1

CDK1/cyclinB = target: T9, CDK1/cyclinB (Homo sapiens, UniProt P06493)
T9 construct: purchased Millipore, Inc. (KinaseProfiler service)
Experimental: as §1

AKT3 = target: T10, AKT3 (Homo sapiens, UniProt Q9Y243)
T10 construct: purchased Millipore, Inc. (KinaseProfiler service)
Experimental: as §1

CDK3/cyclinE = target: T11, CDK3/cyclinE (Homo sapiens, UniProt Q00526)
T11 construct: purchased Millipore, Inc. (KinaseProfiler service)
Experimental: as §1

IKKbeta = target: T12, IKKbeta (Homo sapiens, UniProt O14920)
T12 construct: purchased Millipore, Inc. (KinaseProfiler service)
Experimental: as §1

EphB2 = target: T13, EphB2 (Homo sapiens, UniProt P29323)
T13 construct: purchased Millipore, Inc. (KinaseProfiler service)
Experimental: as §1

Hck = target: T14, Hck (Homo sapiens, UniProt P08631)
T14 construct: purchased Millipore, Inc. (KinaseProfiler service)
Experimental: as §1

MSK2 = target: T15, MSK2 (Homo sapiens, UniProt O75676)
T15 construct: purchased Millipore, Inc. (KinaseProfiler service)
Experimental: as §1

CDK7/cyclinH/MAT1 = target: T16, CDK7/cyclinH/MAT1 (Homo sapiens, UniProt P50613)
T16 construct: purchased Millipore, Inc. (KinaseProfiler service)
Experimental: as §1

ALK = target: T17, ALK (Homo sapiens, UniProt Q9UM73)
T17 construct: purchased Millipore, Inc. (KinaseProfiler service)
Experimental: as §1

MKK7beta = target: T18, MKK7beta (Homo sapiens, UniProt O14733)
T18 construct: purchased Millipore, Inc. (KinaseProfiler service)
Experimental: as §1

ULK2 = target: T19, ULK2 (Homo sapiens, UniProt Q8IYT8)
T19 construct: purchased Millipore, Inc. (KinaseProfiler service)
Experimental: as §1

IRAK1 = target: T20, IRAK1 (Homo sapiens, UniProt P51617)
T20 construct: purchased Millipore, Inc. (KinaseProfiler service)
T20 sequence (P51617 whole entry): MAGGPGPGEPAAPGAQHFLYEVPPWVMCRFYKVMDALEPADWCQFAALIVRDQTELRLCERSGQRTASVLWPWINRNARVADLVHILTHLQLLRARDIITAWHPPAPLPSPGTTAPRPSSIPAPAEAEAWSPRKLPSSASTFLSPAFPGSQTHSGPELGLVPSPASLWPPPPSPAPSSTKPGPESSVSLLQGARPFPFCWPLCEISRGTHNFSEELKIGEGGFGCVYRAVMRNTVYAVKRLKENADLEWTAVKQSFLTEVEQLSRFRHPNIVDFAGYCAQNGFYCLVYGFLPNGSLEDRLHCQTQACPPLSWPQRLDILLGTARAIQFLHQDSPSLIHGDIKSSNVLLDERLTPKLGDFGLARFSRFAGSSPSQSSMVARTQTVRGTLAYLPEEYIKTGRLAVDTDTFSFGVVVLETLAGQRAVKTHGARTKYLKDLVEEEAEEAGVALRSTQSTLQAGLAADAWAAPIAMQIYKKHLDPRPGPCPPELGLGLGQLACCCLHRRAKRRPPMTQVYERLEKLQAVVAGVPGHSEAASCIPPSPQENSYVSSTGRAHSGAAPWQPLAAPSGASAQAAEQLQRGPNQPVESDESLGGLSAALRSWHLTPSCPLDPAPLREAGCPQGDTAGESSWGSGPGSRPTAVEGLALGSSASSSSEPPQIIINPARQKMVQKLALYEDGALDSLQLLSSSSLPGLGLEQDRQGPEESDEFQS
Experimental: as §1

CHK2 = target: T21, CHK2 (Homo sapiens, UniProt O96017)
T21 construct: purchased Millipore, Inc. (KinaseProfiler service)
Experimental: as §1

CK2 = target: T22, CK2 (Homo sapiens, UniProt P68400)
T22 construct: purchased Millipore, Inc. (KinaseProfiler service)
Experimental: as §1

ULK3 = target: T23, ULK3 (Homo sapiens, UniProt Q6PHR2)
T23 construct: purchased Millipore, Inc. (KinaseProfiler service)
T23 sequence (Q6PHR2 whole entry): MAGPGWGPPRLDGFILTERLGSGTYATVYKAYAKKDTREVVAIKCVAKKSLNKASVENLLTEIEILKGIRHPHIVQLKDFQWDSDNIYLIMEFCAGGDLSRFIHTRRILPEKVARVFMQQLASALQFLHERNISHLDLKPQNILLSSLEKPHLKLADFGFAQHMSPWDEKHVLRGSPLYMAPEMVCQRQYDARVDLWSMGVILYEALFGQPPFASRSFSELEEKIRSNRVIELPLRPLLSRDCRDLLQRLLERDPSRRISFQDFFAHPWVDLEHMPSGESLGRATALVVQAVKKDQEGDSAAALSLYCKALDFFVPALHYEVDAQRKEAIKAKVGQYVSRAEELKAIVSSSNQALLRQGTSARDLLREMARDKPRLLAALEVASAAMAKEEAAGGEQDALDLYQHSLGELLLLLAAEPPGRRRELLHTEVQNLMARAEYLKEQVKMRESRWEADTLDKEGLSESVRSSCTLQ
Experimental: as §1

PRKG1alpha = target: T24, PRKG1alpha (Homo sapiens, UniProt Q13976)
T24 construct: purchased Millipore, Inc. (KinaseProfiler service)
T24 sequence (Q13976 whole entry): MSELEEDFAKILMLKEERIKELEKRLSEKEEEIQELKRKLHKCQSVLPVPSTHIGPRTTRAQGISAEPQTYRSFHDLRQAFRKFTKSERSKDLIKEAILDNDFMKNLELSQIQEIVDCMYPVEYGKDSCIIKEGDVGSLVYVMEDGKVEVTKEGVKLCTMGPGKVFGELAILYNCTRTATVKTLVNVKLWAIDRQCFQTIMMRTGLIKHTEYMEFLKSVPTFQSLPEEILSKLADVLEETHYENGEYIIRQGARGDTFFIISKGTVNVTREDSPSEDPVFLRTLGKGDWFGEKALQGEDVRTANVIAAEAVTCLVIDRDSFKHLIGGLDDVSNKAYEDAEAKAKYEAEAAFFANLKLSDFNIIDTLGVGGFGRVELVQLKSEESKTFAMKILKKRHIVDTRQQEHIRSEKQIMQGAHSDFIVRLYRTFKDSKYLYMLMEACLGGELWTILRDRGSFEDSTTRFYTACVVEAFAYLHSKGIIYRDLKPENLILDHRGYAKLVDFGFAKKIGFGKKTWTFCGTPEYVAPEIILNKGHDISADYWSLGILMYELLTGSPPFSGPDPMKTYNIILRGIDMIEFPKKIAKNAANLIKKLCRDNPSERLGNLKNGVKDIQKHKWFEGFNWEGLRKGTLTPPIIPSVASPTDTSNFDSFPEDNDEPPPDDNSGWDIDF
Experimental: as §1

TLK2 = target: T25, TLK2 (Homo sapiens, UniProt Q86UE8)
T25 construct: purchased Millipore, Inc. (KinaseProfiler service)
Experimental: as §1

EphA5 = target: T26, EphA5 (Homo sapiens, UniProt P54756)
T26 construct: purchased Millipore, Inc. (KinaseProfiler service)
Experimental: as §1

PAK5 = target: T27, PAK5 (Homo sapiens, UniProt Q9P286)
T27 construct: purchased Millipore, Inc. (KinaseProfiler service)
Experimental: as §1

HIPK1 = target: T28, HIPK1 (Homo sapiens, UniProt Q86Z02)
T28 construct: purchased Millipore, Inc. (KinaseProfiler service)
T28 sequence (Q86Z02 whole entry): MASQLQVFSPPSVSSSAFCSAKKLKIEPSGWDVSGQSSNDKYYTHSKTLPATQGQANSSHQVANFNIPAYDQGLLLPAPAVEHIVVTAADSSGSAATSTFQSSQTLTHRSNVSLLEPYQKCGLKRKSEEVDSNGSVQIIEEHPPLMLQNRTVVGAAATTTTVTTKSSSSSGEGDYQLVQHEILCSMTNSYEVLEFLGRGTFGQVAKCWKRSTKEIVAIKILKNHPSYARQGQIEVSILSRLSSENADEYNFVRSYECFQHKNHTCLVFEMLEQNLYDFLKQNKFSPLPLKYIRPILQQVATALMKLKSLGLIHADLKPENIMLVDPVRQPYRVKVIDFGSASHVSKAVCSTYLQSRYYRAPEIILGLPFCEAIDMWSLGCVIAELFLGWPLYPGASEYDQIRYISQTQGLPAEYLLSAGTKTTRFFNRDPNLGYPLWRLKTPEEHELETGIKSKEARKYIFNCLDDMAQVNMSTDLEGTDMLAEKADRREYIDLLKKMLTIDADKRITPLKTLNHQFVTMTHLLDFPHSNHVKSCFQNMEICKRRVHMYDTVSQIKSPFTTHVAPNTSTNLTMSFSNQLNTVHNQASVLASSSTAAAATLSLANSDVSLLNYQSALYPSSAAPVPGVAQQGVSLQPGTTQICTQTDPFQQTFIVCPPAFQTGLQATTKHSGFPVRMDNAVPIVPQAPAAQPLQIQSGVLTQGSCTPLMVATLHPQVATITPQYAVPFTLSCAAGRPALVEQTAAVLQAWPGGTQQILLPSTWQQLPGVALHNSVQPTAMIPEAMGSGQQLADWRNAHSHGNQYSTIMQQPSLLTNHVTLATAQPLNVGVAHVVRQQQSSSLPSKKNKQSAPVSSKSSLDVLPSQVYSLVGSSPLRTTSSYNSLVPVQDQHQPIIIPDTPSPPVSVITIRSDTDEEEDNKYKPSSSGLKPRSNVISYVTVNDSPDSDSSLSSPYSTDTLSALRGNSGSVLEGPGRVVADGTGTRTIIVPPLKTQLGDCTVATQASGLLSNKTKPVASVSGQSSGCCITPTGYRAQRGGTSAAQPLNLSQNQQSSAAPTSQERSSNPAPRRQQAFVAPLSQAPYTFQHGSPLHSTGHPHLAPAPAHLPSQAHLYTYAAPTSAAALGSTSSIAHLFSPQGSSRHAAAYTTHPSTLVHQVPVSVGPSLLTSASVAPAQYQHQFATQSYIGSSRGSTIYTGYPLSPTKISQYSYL
Experimental: as §1

EphA8 = target: T29, EphA8 (Homo sapiens, UniProt P29322)
T29 construct: purchased Millipore, Inc. (KinaseProfiler service)
Experimental: as §1

EphA4 = target: T30, EphA4 (Homo sapiens, UniProt P54764)
T30 construct: purchased Millipore, Inc. (KinaseProfiler service)
Experimental: as §1

PRK2 = target: T31, PRK2 (Homo sapiens, UniProt Q16513)
T31 construct: purchased Millipore, Inc. (KinaseProfiler service)
Experimental: as §1

IR Activated = target: T32, IR Activated (Homo sapiens, UniProt P06213)
T32 construct: purchased Millipore, Inc. (KinaseProfiler service)
Experimental: as §1

TrkB = target: T33, TrkB (Homo sapiens, UniProt Q16620)
T33 construct: purchased Millipore, Inc. (KinaseProfiler service)
Experimental: as §1

Rsk4 = target: T34, Rsk4 (Homo sapiens, UniProt Q9UK32)
T34 construct: purchased Millipore, Inc. (KinaseProfiler service)
Experimental: as §1

MAP4K2 = target: T35, MAP4K2 (Homo sapiens, UniProt Q12851)
T35 construct: purchased Millipore, Inc. (KinaseProfiler service)
Experimental: as §1

LIMK1 = target: T36, LIMK1 (Homo sapiens, UniProt P53667)
T36 construct: purchased Millipore, Inc. (KinaseProfiler service)
T36 sequence (P53667 whole entry): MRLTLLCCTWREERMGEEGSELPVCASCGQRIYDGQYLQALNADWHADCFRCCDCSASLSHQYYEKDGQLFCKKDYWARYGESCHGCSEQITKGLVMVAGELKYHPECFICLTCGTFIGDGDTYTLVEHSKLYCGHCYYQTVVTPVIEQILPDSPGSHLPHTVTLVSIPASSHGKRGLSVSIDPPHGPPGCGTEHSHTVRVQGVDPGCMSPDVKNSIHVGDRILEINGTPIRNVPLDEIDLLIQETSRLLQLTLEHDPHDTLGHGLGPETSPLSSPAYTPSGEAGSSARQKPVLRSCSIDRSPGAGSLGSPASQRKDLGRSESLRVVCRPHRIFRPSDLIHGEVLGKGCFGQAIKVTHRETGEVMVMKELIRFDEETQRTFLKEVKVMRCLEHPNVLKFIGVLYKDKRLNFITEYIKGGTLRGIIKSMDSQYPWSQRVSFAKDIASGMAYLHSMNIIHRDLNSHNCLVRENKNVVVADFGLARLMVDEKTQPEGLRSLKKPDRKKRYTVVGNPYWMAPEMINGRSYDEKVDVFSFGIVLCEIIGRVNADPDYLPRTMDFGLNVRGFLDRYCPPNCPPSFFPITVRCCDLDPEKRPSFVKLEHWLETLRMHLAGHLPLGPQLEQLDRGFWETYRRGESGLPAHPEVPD
Experimental: as §1

NEK6 = target: T37, NEK6 (Homo sapiens, UniProt Q9HC98)
T37 construct: purchased Millipore, Inc. (KinaseProfiler service)
T37 sequence (Q9HC98 whole entry): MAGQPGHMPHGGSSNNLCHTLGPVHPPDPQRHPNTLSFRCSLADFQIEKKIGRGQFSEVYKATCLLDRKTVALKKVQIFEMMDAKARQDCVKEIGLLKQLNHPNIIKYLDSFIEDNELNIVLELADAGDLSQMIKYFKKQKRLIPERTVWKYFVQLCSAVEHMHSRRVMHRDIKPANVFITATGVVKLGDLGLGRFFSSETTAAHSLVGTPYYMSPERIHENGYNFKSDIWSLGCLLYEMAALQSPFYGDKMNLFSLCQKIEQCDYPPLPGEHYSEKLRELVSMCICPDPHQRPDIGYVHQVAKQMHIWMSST
Experimental: as §1

p70S6K = target: T38, p70S6K (Homo sapiens, UniProt P23443)
T38 construct: purchased Millipore, Inc. (KinaseProfiler service)
Experimental: as §1

ZAP-70 = target: T39, ZAP-70 (Homo sapiens, UniProt P43403)
T39 construct: purchased Millipore, Inc. (KinaseProfiler service)
Experimental: as §1

CLK2 = target: T40, CLK2 (Homo sapiens, UniProt P49760)
T40 construct: purchased Millipore, Inc. (KinaseProfiler service)
Experimental: as §1

T1 sequence (P11362 22-822): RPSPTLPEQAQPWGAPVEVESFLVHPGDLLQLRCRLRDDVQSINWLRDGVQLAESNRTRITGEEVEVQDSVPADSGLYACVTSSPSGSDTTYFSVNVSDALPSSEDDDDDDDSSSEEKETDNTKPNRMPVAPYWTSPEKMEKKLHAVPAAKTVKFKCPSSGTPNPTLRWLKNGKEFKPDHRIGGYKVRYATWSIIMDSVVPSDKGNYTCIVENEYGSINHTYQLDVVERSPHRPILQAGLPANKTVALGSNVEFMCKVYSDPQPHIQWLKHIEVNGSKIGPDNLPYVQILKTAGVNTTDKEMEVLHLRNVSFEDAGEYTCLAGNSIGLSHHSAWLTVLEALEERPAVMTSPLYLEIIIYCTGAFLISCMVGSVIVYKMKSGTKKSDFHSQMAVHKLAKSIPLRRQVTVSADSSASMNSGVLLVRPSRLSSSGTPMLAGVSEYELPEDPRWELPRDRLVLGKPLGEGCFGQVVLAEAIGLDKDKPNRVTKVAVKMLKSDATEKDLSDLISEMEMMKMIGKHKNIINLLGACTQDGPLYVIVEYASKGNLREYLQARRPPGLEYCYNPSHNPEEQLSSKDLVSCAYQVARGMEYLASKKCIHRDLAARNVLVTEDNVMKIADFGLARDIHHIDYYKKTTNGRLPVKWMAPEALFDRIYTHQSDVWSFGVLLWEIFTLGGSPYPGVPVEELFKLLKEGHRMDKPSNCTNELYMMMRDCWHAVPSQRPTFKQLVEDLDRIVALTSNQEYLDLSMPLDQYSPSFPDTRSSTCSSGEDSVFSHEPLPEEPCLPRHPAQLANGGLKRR

Avg POC (FGFR1): 116 POC
Avg POC (BrSK1): 118 POC
Avg POC (PKCgamma): 100.5 POC
Avg POC (TAK1): 110.5 POC
Avg POC (c-RAF): 114 POC
Avg POC (DRAK1): 136 POC
Avg POC (MRCKbeta): 119 POC
Avg POC (CK1_y): 105 POC
Avg POC (Flt4): 108 POC
Avg POC (CDK1/cyclinB): 117.5 POC
Avg POC (AKT3): 130.5 POC
Avg POC (CDK3/cyclinE): 125 POC
Avg POC (IKKbeta): 130.5 POC
Avg POC (EphB2): 109 POC
Avg POC (Hck): 135.5 POC
Avg POC (MSK2): 107 POC
Avg POC (CDK7/cyclinH/MAT1): 121.5 POC
Avg POC (ALK): 114.5 POC
Avg POC (MKK7beta): 115.5 POC
Avg POC (ULK2): 102 POC
Avg POC (IRAK1): 125 POC
Avg POC (CHK2): 110.5 POC
Avg POC (CK2): 114.5 POC
Avg POC (ULK3): 98.5 POC
Avg POC (PRKG1alpha): 109.5 POC
Avg POC (TLK2): 106 POC
Avg POC (EphA5): 118.5 POC
Avg POC (PAK5): 122.5 POC
Avg POC (HIPK1): 119 POC
Avg POC (EphA8): 112.5 POC
Avg POC (EphA4): 100.5 POC
Avg POC (PRK2): 142.5 POC
Avg POC (IR Activated): 102.5 POC
Avg POC (TrkB): 9 POC
Avg POC (Rsk4): 126.5 POC
Avg POC (MAP4K2): 110.5 POC
Avg POC (LIMK1): 105.5 POC
Avg POC (NEK6): 120 POC
Avg POC (p70S6K): 218 POC
Avg POC (ZAP-70): 118 POC
Avg POC (CLK2): 135 POC
SMILES: COCc1ccc2cccc(NC(=O)Nc3c(C)c(-c4cnn(C)c4)nn3-c3ccccc3)c2c1 [Example 16, 1-(1′,4-dimethyl-1-phenyl-1H,1′H-[3,4′-bipyrazol]-5-yl)-3-(7-(methoxymethyl)naphthalen-1-yl)urea]
